Assay [1] deals with HeLa cells. Kind of assay: cells. Format: cell-based.
Assay [2] has as its system SNU-C1. Kind of assay: cells. In kind it is cell-based. The note with it: basal.
In assay [3] the target is T1, hp70S6K1 (RPS6KB1) (Homo sapiens, UniProt P23443).
T1 construct: purchased Cerep (LANCE kinase assay platform, contract assay)
Nature of the assay: Cerep LANCE kinase assay hp70S6K1 (S1 assay 31). Format: biochemical.

Assay [4] concerns the target T2, hFLT3 (Homo sapiens, UniProt P36888).
T2 construct: purchased Cerep (LANCE kinase assay platform, contract assay)
Kind of assay: Cerep LANCE kinase assay hFLT3 (S1 assay 35). Format: biochemical.

Assay [5] has as its system RKO. Nature of the assay: cells. Format: cell-based. The note with it: basal.
The subject of assay [6] is HT-29. Nature of the assay: cells. In kind it is cell-based. The note with it: basal.
Assay [7] concerns SW480. Kind of assay: cells. The note with it: basal. Format: cell-based.
Assay [8] deals with T3, hKDR (Homo sapiens, UniProt P35968).
T3 construct: purchased Cerep (LANCE kinase assay platform, contract assay)
Nature of the assay: Cerep LANCE kinase assay hKDR (S1 assay 32). Format: biochemical. Background: TR-FRET usually uses a lanthanide donor and a delayed reading to cut background.

Assay [9] relates to Colo320. Nature of the assay: cells. Format: cell-based. The note with it: basal.
The subject of assay [10] is HCT116. Nature of the assay: cells. The note with it: basal. Format: cell-based.
For assay [11], the target named is T4, hGSK3b (Homo sapiens, UniProt P49841).
T4 construct: purchased Cerep (LANCE kinase assay platform, contract assay)
Kind of assay: Cerep LANCE kinase assay hGSK3b (S1 assay 34). Format: biochemical.

The target of assay [12] is T5, hJAK2 (Homo sapiens, UniProt O60674).
T5 construct: purchased Cerep (LANCE kinase assay platform, contract assay)
Nature of the assay: Cerep LANCE kinase assay hJAK2 (S1 assay 33). Format: biochemical.

Assay [13] deals with HCT116 cells treated with a GSK3β inhibitor. Kind of assay: cells. Format: cell-based. The note with it: GSK3b inh pretreated.
The test system of assay [14] is DLD-1. Kind of assay: cells. Format: cell-based. The note with it: basal.
Assay [15] concerns ECFC/ADSC co-culture cell nuclei number.
Assay [16] concerns endothelial tube formation in co-cultures of ECFCs and ADSCs treated with VEGF. Kind of assay: cells. In kind it is cell-based, human.

Like-named read-outs stand apart in the source and are kept apart here.
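For Hela CellCycMod PI 4N summarized IC50 in this document: value tracks stimulation of 4N DNA content.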

T4 sequence (P49841 whole entry): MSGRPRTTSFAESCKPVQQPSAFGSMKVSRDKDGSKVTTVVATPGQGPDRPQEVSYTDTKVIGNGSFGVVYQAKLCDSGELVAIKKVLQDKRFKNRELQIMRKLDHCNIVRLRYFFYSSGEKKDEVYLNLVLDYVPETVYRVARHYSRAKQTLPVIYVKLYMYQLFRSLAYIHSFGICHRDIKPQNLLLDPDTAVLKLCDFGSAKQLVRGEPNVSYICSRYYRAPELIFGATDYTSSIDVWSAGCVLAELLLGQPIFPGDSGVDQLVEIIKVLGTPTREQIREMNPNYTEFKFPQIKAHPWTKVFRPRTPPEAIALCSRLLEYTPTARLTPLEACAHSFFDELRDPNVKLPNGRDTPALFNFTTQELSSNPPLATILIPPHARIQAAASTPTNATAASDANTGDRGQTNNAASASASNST
T1 sequence (P23443 whole entry): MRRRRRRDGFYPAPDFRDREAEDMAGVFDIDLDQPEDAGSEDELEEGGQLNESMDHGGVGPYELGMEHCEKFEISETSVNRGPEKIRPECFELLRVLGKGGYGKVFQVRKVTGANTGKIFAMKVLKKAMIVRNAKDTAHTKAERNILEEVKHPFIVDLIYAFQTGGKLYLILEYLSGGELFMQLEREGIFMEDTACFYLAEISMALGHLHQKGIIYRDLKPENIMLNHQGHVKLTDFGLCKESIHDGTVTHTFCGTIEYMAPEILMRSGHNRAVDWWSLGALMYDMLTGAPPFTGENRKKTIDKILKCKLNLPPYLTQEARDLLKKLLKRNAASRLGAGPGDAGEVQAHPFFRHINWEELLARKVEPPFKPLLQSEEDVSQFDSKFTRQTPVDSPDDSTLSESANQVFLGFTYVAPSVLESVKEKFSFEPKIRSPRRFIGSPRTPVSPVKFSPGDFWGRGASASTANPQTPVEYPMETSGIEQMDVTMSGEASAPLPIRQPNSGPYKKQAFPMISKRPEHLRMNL
T5 sequence (O60674 whole entry): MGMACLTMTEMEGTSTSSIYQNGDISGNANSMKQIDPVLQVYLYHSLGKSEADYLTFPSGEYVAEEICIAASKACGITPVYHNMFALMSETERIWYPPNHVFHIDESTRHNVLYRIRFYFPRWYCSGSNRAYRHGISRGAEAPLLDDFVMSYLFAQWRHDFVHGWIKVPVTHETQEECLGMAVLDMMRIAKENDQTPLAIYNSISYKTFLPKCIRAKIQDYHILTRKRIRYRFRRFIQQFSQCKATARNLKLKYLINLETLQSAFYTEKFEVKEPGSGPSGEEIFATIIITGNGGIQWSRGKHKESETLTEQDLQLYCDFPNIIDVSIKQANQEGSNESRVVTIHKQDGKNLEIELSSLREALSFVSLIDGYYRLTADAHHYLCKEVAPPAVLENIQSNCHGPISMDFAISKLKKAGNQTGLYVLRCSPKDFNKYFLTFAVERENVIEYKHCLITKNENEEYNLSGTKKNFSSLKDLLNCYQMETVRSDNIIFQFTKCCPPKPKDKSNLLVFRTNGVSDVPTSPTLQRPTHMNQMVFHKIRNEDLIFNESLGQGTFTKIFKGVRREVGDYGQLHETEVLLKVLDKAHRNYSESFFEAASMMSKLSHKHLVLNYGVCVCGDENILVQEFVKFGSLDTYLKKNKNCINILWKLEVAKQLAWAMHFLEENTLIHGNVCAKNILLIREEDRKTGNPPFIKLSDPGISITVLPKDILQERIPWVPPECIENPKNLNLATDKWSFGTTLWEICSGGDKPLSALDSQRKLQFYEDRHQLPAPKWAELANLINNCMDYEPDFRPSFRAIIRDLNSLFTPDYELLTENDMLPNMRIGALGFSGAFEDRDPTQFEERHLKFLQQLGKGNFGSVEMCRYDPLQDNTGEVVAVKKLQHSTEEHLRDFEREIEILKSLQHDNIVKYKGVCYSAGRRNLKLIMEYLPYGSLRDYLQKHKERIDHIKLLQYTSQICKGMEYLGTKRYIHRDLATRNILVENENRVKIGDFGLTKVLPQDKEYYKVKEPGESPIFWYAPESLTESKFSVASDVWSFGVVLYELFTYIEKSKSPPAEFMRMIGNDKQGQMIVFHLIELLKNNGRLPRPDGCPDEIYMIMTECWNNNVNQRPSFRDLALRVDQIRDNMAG
T2 sequence (P36888 27-993): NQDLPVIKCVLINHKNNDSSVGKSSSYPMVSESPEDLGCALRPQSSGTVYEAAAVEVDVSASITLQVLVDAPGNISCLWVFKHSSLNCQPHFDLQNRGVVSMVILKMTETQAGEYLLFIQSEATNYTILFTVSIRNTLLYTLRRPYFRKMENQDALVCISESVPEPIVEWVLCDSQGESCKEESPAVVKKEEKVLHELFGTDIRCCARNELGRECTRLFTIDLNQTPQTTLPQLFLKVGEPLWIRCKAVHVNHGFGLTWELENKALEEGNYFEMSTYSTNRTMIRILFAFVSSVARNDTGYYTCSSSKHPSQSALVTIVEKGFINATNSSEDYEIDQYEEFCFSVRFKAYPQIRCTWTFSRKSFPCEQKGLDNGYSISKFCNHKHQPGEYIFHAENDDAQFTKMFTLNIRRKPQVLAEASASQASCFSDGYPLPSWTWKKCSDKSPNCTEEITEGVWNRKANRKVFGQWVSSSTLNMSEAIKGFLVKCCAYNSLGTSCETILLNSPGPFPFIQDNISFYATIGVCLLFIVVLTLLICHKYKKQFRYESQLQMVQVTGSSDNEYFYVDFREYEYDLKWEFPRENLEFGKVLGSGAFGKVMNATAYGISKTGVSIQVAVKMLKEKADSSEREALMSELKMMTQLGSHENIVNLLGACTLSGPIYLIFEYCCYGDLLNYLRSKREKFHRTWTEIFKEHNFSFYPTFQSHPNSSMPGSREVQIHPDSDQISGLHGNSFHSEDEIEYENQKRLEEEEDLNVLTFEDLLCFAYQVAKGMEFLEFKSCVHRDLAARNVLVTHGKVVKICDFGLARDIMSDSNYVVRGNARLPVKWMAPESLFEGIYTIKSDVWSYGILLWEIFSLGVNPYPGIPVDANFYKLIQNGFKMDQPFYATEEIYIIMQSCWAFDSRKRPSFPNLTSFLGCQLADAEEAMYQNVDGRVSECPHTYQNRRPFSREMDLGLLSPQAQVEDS
T3 sequence (P35968 20-1356): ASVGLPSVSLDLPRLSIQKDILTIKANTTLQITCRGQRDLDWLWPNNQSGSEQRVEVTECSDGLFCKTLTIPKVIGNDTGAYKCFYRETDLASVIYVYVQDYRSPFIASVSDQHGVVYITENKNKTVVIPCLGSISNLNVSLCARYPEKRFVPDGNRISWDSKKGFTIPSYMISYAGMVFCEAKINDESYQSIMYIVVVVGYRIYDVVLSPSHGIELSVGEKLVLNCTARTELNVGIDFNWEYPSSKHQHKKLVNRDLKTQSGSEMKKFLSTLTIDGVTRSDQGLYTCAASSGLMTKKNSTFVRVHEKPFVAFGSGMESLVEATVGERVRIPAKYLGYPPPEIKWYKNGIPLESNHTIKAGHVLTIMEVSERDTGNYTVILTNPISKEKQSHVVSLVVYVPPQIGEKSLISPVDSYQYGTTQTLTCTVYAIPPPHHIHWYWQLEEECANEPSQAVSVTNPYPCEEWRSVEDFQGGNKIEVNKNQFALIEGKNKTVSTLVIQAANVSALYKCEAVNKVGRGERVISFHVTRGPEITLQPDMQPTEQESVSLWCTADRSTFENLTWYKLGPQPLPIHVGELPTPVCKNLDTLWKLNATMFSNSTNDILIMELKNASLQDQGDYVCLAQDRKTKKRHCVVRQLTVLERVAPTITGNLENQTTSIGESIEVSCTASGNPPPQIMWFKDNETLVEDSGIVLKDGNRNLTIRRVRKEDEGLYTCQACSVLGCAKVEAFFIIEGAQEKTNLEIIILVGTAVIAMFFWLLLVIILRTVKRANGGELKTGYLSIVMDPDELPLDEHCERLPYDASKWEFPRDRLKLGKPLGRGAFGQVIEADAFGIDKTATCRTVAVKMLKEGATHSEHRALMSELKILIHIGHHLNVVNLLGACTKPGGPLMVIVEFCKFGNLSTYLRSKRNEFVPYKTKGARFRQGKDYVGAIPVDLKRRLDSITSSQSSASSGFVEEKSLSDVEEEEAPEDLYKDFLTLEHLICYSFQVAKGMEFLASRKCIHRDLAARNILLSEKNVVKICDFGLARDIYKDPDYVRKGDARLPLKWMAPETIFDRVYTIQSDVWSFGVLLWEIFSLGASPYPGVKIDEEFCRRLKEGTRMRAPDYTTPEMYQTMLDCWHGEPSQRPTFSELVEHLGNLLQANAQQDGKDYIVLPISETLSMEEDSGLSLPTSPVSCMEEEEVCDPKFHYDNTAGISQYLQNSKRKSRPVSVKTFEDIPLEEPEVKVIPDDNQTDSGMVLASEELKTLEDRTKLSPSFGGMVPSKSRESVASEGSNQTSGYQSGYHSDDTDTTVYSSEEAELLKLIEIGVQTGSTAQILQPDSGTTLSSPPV

Take `Cn1cnc([N+](=O)[O-])c1Sc1ncnc2nc[nH]c12` [NCGC00015060-18]: in assay [1] (2N), the “IC50/EC50, Hela CellCycMod PI 2N (assay number 14)” value was over 10 µM. Further, in assay [1] (4N), the “IC50/EC50, Hela CellCycMod PI 4N (assay number 16)” value is over 10 µM. Besides, in assay [1], the “IC50/EC50, Hela CellCycMod PI Cell Number (assay number 18)” value is given as over 10 µM and the “IC50/EC50, Hela CellCycMod PI S Phase (assay number 15)” value is reported as over 10 µM. Moreover, in assay [1] (MI), the “IC50/EC50, Hela CellCycMod PI MI (assay number 17)” value was over 10 µM. Also, in [2], the “IC50/EC50, Basal_Viability ATP SNU-C1 (assay number 30)” value was over 20 µM. In addition, in assay [3], the “IC50/EC50, hp70S6K1 LANCE (assay number 31)” value is reported as over 20 µM. Besides, the “IC50/EC50, hFLT3 LANCE (assay number 35)” value in assay [4] is listed as over 20 µM. For the same compound, the “IC50/EC50, Basal_Viability ATP RKO (assay number 29)” value in assay [5] is recorded as 2.661 µM. Moreover, in assay [6], the “IC50/EC50, Basal_Viability ATP HT-29 (assay number 28)” value is on record as over 20 µM. The “IC50/EC50, Basal_Viability ATP SW480 (assay number 24)” value in [7] worked out at 9.4353 µM. Moreover, the “IC50/EC50, hKDR LANCE (assay number 32)” value in [8] was over 20 µM. Besides, the “IC50/EC50, Basal_Viability ATP Colo 320 (assay number 27)” value in [9] came out at 10.3402 µM. For the same compound, in assay [10], the “IC50/EC50, Basal_Viability ATP HCT116 (assay number 25)” value came out at 0.2074 µM. Also, the “IC50/EC50, hGSK3b LANCE (assay number 34)” value in [11] is over 20 µM. Moreover, in assay [12], the “IC50/EC50, hJAK2 LANCE (assay number 33)” value is recorded as over 20 µM. In [13], the “IC50/EC50, GSK3b inh pretreated_Viability ATP HCT116 (assay number 26)” value is 0.6232 µM. In addition, the “IC50/EC50, Basal_Viability ATP DLD-1 (assay number 23)” value in [14] amounted to 0.3635 µM.

One may read the IC50 as the concentration at which inhibition is half-maximal. As for `Oc1c(I)cc(I)c2cccnc12` [NCGC00018098-07], the IC50 in assay [1] (assay number 14, 2N, read-out: Hela CellCycMod PI 2N summarized IC50) is over 10 µM; in assay [1] (assay number 16, 4N, read-out: Hela CellCycMod PI 4N summarized IC50), over 10 µM; in assay [1] (assay number 17, MI, read-out: Hela CellCycMod PI MI summarized IC50) it was over 10 µM; in assay [1] (assay number 18, cell number, read-out: Hela CellCycMod PI Cell Number summarized IC50), over 10 µM; in assay [2] (assay number 30, read-out: Basal_Viability ATP SNU-C1 summarized IC50) it was 0.0387 µM; in assay [3] (assay number 31, read-out: hp70S6K1 LANCE summarized IC50), over 20 µM. The half-maximal inhibitory concentration (IC50) in assay [4] (assay number 35, read-out: hFLT3 LANCE summarized IC50) was over 20 µM; in [5] (assay number 29, read-out: Basal_Viability ATP RKO summarized IC50), 0.0227 µM; in [6] (assay number 28, read-out: Basal_Viability ATP HT-29 summarized IC50), 0.705 µM; in assay [7] (assay number 24, read-out: Basal_Viability ATP SW480 summarized IC50), 0.0036 µM; in [8] (assay number 32, read-out: hKDR LANCE summarized IC50), over 20 µM; in assay [9] (assay number 27, read-out: Basal_Viability ATP Colo 320 summarized IC50) it was 0.0213 µM. The IC50 in assay [15] (read-out: VEGF_ADSC\ECFC Angio Hoechst NucArea summarized IC50) is over 10 µM; in [10] (assay number 25, read-out: Basal_Viability ATP HCT116 summarized IC50), 0.041 µM; in [11] (assay number 34, read-out: hGSK3b LANCE summarized IC50), over 20 µM; in assay [12] (assay number 33, read-out: hJAK2 LANCE summarized IC50), over 20 µM; in assay [14] (assay number 23, read-out: Basal_Viability ATP DLD-1 summarized IC50), 0.0178 µM; in assay [16] (read-out: VEGF_ADSC\ECFC Angio CD31 TubeArea summarized IC50) it was 2.39 µM.

For the compound `O=c1[nH]c(=O)n([C@H]2C[C@H](O)[C@@H](CO)O2)cc1F` [NCGC00023722-08], the “IC50/EC50, Hela CellCycMod PI 2N (assay number 14)” value in [1] (2N) is given as over 10 µM. Besides, the “IC50/EC50, Hela CellCycMod PI 4N (assay number 16)” value in [1] (4N) is over 10 µM. Moreover, in [1], the “IC50/EC50, Hela CellCycMod PI Cell Number (assay number 18)” value is reported as over 10 µM and the “IC50/EC50, Hela CellCycMod PI S Phase (assay number 15)” value is given as 0.1688 µM. Further, the “IC50/EC50, Hela CellCycMod PI MI (assay number 17)” value in [1] (MI) is on record as over 10 µM. Moreover, the “IC50/EC50, Basal_Viability ATP SNU-C1 (assay number 30)” value in assay [2] was over 20 µM. For the same compound, in [3], the “IC50/EC50, hp70S6K1 LANCE (assay number 31)” value was over 20 µM. Further, the “IC50/EC50, hFLT3 LANCE (assay number 35)” value in assay [4] was over 20 µM. In addition, in [5], the “IC50/EC50, Basal_Viability ATP RKO (assay number 29)” value came to 0.001 µM. For the same compound, the “IC50/EC50, Basal_Viability ATP HT-29 (assay number 28)” value in assay [6] is given as over 20 µM. For the same compound, the “IC50/EC50, Basal_Viability ATP SW480 (assay number 24)” value in [7] was over 20 µM. Moreover, the “IC50/EC50, hKDR LANCE (assay number 32)” value in assay [8] is over 20 µM. Moreover, the “IC50/EC50, Basal_Viability ATP Colo 320 (assay number 27)” value in assay [9] is reported as over 20 µM. Also, the “IC50/EC50, VEGF_ADSC\ECFC Angio Hoechst NucArea (assay number 3)” value in [15] is over 10 µM. The “IC50/EC50, Basal_Viability ATP HCT116 (assay number 25)” value in assay [10] came to 0.001 µM. Besides, the “IC50/EC50, hGSK3b LANCE (assay number 34)” value in [11] is recorded as over 20 µM. Moreover, in assay [12], the “IC50/EC50, hJAK2 LANCE (assay number 33)” value was over 20 µM. The “IC50/EC50, GSK3b inh pretreated_Viability ATP HCT116 (assay number 26)” value in [13] was 0.001 µM. Also, the “IC50/EC50, Basal_Viability ATP DLD-1 (assay number 23)” value in assay [14] came to 0.001 µM. Moreover, the “IC50/EC50, VEGF_ADSC\ECFC Angio CD31 TubeArea (assay number 2)” value in assay [16] is on record as 0.0216 µM.
